Reference: patent US6277847A, “Herbicidal isoindolinonyl-and 3,4-dihydroisoquinolonyl-substituted heterocycles” (FMC Corporation, priority 2000, dated 2001)

Key:
Assay type in all cases: in vivo
[1] = system: soybean (Glycine max -- var. Winchester); assay: pre-emergence herbicidal activity, soybean; conditions: 1 kg/Ha, about fourteen days, read-out: pre-emergence herbicidal activity (% control) SOY
Procedure, shortened: (§1)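 Seeds sown in flats of soil mix were sprayed pre-emergence with test compound in water/acetone at 1 kg/Ha. Flats were held about fourteen days beside untreated controls, then phytotoxicity was scored as percent control (0 = no effect, 100 = complete control).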

[2] = system: wheat (Triticum aestivum var. Lew); assay: pre-emergence herbicidal activity, wheat; conditions: 1 kg/Ha, about fourteen days, read-out: pre-emergence herbicidal activity (% control) WHT
Procedure, shortened: as §1

[3] = system: field corn (Zea mays var. Pioneer 3732); assay: pre-emergence herbicidal activity, corn; conditions: 1 kg/Ha, about fourteen days, read-out: pre-emergence herbicidal activity (% control) CRN
Procedure, shortened: as §1

[4] = system: velvetleaf (Abutilon theophrasti); assay: pre-emergence herbicidal activity, velvetleaf; conditions: 1 kg/Ha, about fourteen days, read-out: pre-emergence herbicidal activity (% control) ABUTH
Procedure, shortened: as §1

[5] = system: morningglory (Ipomea lacunosa or Ipomea hederacea); assay: pre-emergence herbicidal activity, morningglory; conditions: Ipomoea, 1 kg/Ha, about fourteen days, read-out: pre-emergence herbicidal activity (% control) IPOSS
Procedure, shortened: as §1

[6] = system: common chickweed (Stellaria media); assay: pre-emergence herbicidal activity, chickweed; conditions: 1 kg/Ha, about fourteen days, read-out: pre-emergence herbicidal activity (% control) STEME
Procedure, shortened: as §1

[7] = system: common cocklebur (Xanthium strumarium L.); assay: pre-emergence herbicidal activity, cocklebur; conditions: 1 kg/Ha, about fourteen days, read-out: pre-emergence herbicidal activity (% control) XANPE
Procedure, shortened: as §1

[8] = system: green foxtail (Setaria viridis); assay: pre-emergence herbicidal activity, green foxtail; conditions: 1 kg/Ha, about fourteen days, read-out: pre-emergence herbicidal activity (% control) SETVI
Procedure, shortened: as §1

[9] = system: soybean (Glycine max -- var. Winchester); assay: post-emergence herbicidal activity, soybean; conditions: 1 Kg/Ha, about fourteen days, read-out: post-emergence herbicidal activity (% control) SOY
Procedure, shortened: (§2)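 Percent control (0–100) was rated about fourteen days after spraying of emerged, germinated plants in flats with compound dissolved in water/acetone at 1 Kg/Ha.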

[10] = system: wheat (Triticum aestivum var. Lew); assay: post-emergence herbicidal activity, wheat; conditions: 1 Kg/Ha, about fourteen days, read-out: post-emergence herbicidal activity (% control) WHT
Procedure, shortened: as §2

[11] = system: field corn (Zea mays var. Pioneer 3732); assay: post-emergence herbicidal activity, corn; conditions: 1 Kg/Ha, about fourteen days, read-out: post-emergence herbicidal activity (% control) CRN
Procedure, shortened: as §2

[12] = system: velvetleaf (Abutilon theophrasti); assay: post-emergence herbicidal activity, velvetleaf; conditions: 1 Kg/Ha, about fourteen days, read-out: post-emergence herbicidal activity (% control) ABUTH
Procedure, shortened: as §2

[13] = system: morningglory (Ipomea lacunosa or Ipomea hederacea); assay: post-emergence herbicidal activity, morningglory; conditions: Ipomoea, 1 Kg/Ha, about fourteen days, read-out: post-emergence herbicidal activity (% control) IPOSS
Procedure, shortened: as §2

[14] = system: common chickweed (Stellaria media); assay: post-emergence herbicidal activity, chickweed; conditions: 1 Kg/Ha, about fourteen days, read-out: post-emergence herbicidal activity (% control) STEME
Procedure: (§3) This example sets forth the methods of herbicidal testing conducted on the specific compounds set forth below. Specifically, the compounds referenced below were tested for pre- and post-emergence herbicidal activity using a variety of crops and weeds. The test plants include, but are not limited to, soybean (Glycine max -- var. Winchester), field corn (Zea mays var. Pioneer 3732), wheat (Triticum aestivum var. Lew), morningglory (Ipomea lacunosa or Ipomea hederacea), velvetleaf (Abutilon theophrasti), green foxtail (Setaria viridis), Johnsongrass (Sorghum halepense), blackgrass (Aloepecurus myosuroides), common chickweed (Stellaria media), and common cocklebur (Xanthium strumarium L.).
(§4) In the post-emergence test, seeds of the plant species named above were planted in flats containing the appropriate soil mixture where they were maintained to allow the seeds to germinate. When the plants in these flats reached the proper stage of growth, flats for the pre-emergence tests were planted in a like manner. The flats containing the post-emergence and pre-emergence test plant species were then sprayed with an appropriately concentrated water/acetone solution of test compound. Once treated the flats were maintained, along with untreated controls, for about fourteen days. All treated plants were then examined for phytotoxicity, which was expressed as percent control where 0 is no effect and 100 is complete control. Effective rates of application for the compounds of the present invention range from 0.001 to 3 kg/ha, more likely from […] to 1 Kg/ha.
(§5) Herbicidal activity data at selected application rates are in Tables 4 and 5. The test compounds are identified by numbers correspond to those in Table 1.
(§6) SOY is soybean, WHT is wheat, CRN is corn, ABUTH is velvetleaf, IPOSS is
(§7) morningglory, STEME is chickweed, XANPE is cocklebur, ALOMY is blackgrass,
(§8) Rate of application of test compound is 1 Kg/Ha. The definitions as shown under Table 4 apply to Table 5.

[15] = system: common cocklebur (Xanthium strumarium L.); assay: post-emergence herbicidal activity, cocklebur; conditions: 1 Kg/Ha, about fourteen days, read-out: post-emergence herbicidal activity (% control) XANPE
Procedure, shortened: as §2

[16] = system: blackgrass (Aloepecurus myosuroides); assay: post-emergence herbicidal activity, blackgrass; conditions: Alopecurus myosuroides, 1 Kg/Ha, about fourteen days, read-out: post-emergence herbicidal activity (% control) ALOMY
Procedure: as §3, §4, §5, §6, §7, §8

[17] = system: green foxtail (Setaria viridis); assay: post-emergence herbicidal activity, green foxtail; conditions: 1 Kg/Ha, about fourteen days, read-out: post-emergence herbicidal activity (% control) SETVI
Procedure, shortened: as §2

[18] = system: Johnsongrass (Sorghum halepense); assay: post-emergence herbicidal activity, johnsongrass; conditions: 1 Kg/Ha, about fourteen days, read-out: post-emergence herbicidal activity (% control) SORHA
Procedure, shortened: as §2

[19] = system: blackgrass (Aloepecurus myosuroides); assay: pre-emergence herbicidal activity, blackgrass; conditions: Alopecurus myosuroides, 1 kg/Ha, about fourteen days, read-out: pre-emergence herbicidal activity (% control) ALOMY
Procedure, shortened: as §1

Compound	activity at 1000 g/ha [1]	activity at 1000 g/ha [2]	activity at 1000 g/ha [3]	activity at 1000 g/ha [4]	activity at 1000 g/ha [5]	activity at 1000 g/ha [6]	activity at 1000 g/ha [7]	activity at 1000 g/ha [8]	activity at 1000 g/ha [9]	activity at 1000 g/ha [10]	activity at 1000 g/ha [11]	activity at 1000 g/ha [12]	activity at 1000 g/ha [13]	activity at 1000 g/ha [14]	activity at 1000 g/ha [15]	activity at 1000 g/ha [16]	activity at 1000 g/ha [17]	activity at 1000 g/ha [18]	activity at 1000 g/ha [19]
COCCN1Cc2c(-n3c(=O)cc(C(F)(F)F)n(C)c3=O)ccc(Cl)c2C1=O [Compound 23]	100%	100%	100%	100%	100%	100%	100%	100%	100%	100%	80%	100%	100%	100%	100%	100%	100%	100%	
C#CCn1c(C(F)(F)F)cc(=O)n(-c2ccc(Cl)c3c2CN(C(C)C)C3=O)c1=O [Compound 75]	100%	100%	95%	100%	100%	100%	95%	100%	60%	70%	50%	100%	50%	100%	85%	100%	45%		95%
Cn1c(C(F)(F)F)cc(=O)n(-c2ccc(Cl)c3c2CN(C2CCCC2)C3=O)c1=O [Compound 76]	100%	80%	95%	100%	100%	100%	100%	100%	95%	100%	100%	100%	100%	100%	100%	100%	100%		90%
Cn1c(C(F)(F)F)cc(=O)n(-c2ccc(Cl)c3c2CN(C2CCCCC2)C3=O)c1=O [Compound 77]	100%	80%	90%	100%	100%	100%	100%	100%	95%	80%	100%	100%	100%	100%	100%	100%	100%		95%
Cn1c(C(F)(F)F)cc(=O)n(-c2ccc(Cl)c3c2CN(CCF)C3=O)c1=O [Compound 78]	100%	100%	100%	100%	100%	100%	100%	100%	100%	100%	100%	100%	100%	100%	100%	100%	100%		100%
C=CCn1c(C(F)(F)F)cc(=O)n(-c2ccc(Cl)c3c2CN(C(C)C)C3=O)c1=O [Compound 80]	70%	80%	70%	100%	80%	100%	40%	95%	85%	50%	75%	95%	30%	100%	40%	65%	80%		80%
CC(C)N1Cc2c(-n3c(=O)cc(C(F)(F)F)n(C)c3=O)ccc(Br)c2C1=O [Compound 81]	100%	100%	100%	100%	100%	100%	100%	100%	100%	100%	100%	100%	100%	100%	100%	100%	100%		100%
CC(C)N1Cc2c(c(Cl)cc(Cl)c2N2C(=O)C3=C(CCCC3)C2=O)C1=O [Compound 82, 1-[5,7-dichloro-2-(1-methylethyl)isoindolin-1-on-4-yl]-3,4,5,6-tetrahydrophthalimide]	70%	60%	80%	100%	100%	100%	95%	100%	60%	40%	65%	100%	95%	85%	100%	100%	100%		70%
CC(C)N1Cc2c(-n3nc4n(c3=O)CCCC4)ccc(Cl)c2C1=O [Compound 83, 2-[7-chloro-2-(1-methylethyl)isoindolin-1-on-4-yl]-5,6,7,8-tetrahydro-1,2,4-triazolo[4,3-A]pyridin-3(2H)-one]	5%	10%	0%	100%	60%	100%	30%	60%	80%	30%	60%	100%	90%	80%	60%	50%	60%		50%
